Assay results as given in patent publication US8710089B2, “Triazole derivatives as ghrelin analogue ligands of growth hormone secretagogue receptors” (Zentaris GmbH, priority 2005, dated 2014).

Legend:
[1] = molecular target: T1, Motilin-Receptor 1a (MTL-R1a) (Homo sapiens, UniProt O43193); experiment: Motilin receptor-ligand binding assay (human recombinant HEK-293 cells); conditions: 0.1 nM [125I] Motilin, read-out: MTL-R 1a IC50
T1 construct: expressed in transfected cells; host or cells: HEK-293 cells
T1 sequence (O43193 whole entry): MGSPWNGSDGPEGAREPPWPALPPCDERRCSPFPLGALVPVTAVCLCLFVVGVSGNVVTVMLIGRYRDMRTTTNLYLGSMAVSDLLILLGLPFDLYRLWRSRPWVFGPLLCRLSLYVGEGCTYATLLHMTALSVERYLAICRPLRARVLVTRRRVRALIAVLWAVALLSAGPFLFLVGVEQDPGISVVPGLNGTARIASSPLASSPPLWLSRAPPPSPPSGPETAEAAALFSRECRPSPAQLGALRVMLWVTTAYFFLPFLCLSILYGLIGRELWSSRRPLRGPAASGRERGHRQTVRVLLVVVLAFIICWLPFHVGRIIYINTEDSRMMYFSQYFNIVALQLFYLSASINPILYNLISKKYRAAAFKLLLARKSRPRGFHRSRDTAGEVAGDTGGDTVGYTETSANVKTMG
Experimental: VI) Motilin Receptor-Ligand Binding Assay (Using Human Recombinant HEK-293 Cells)
Motilin Receptor binding/affinity studies were performed as described by Feighner S D et al. (Science 1999, 284: 2184-2188). The assays were run under the following conditions:
Compounds of the invention were tested in concentrations comprising 0.01 μM, 0.1 μM, 1 μM and 10 μM.
IC50 values were determined by a non-linear, least square regression analysis using Data Analysis Toolbox (MDL Information Systems, USA).
In the following table 5 results obtained for selected compounds of the invention are presented.

[2] = tested on: rats with adjuvant induced arthritis; experiment: Anti-cachectic effects in an adjuvant-induced arthritis model system; assay type: in vivo, rat; conditions: arthritic rats, 0.1 μg/kg/day s.c.
From the text: VII) Study of Anti-Cachectic Effects in an Adjuvant-Induced Arthritis Model System
The effectiveness of compounds of the invention in the treatment of cachexia was investigated according to Ibanez de Caceres I et al. (J Endocrinol. 2000, 165(3): 537-544) using a cachexia model system (Roubenoff R et al., Arthritis Rheum. 1997, 40(3): 534-539).

[3] = molecular target: T2, human GHS-R 1a (Homo sapiens, UniProt Q92847); experiment: GHS-R 1a receptor-ligand binding assay (membrane preparations from transfected LLC PK-1 cells); conditions: displacement of 125I-His9-ghrelin (60 pM); membranes of LLC PK-1 cells transfected with human GHS-R 1a; mean of at least two independent experiments in triplicates
T2 construct: expressed in transfected cells; host or cells: LLC PK-1 porcine renal epithelial cells (ECACC No. 86121112), isolated plasma membranes
T2 sequence (Q92847 whole entry): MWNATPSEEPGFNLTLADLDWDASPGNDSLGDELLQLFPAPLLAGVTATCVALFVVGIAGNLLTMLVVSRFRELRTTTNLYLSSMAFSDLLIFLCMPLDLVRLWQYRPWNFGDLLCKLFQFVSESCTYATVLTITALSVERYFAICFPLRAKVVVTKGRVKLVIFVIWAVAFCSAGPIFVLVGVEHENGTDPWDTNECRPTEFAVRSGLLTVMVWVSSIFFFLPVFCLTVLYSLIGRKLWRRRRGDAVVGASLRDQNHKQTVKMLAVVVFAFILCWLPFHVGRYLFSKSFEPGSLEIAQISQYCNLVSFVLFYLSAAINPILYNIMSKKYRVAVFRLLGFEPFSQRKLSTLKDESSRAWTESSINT
Outline: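 Membranes from LLC PK-1 cells expressing human GHS-R 1a incubated 60 min at 25 °C in 50 mM Tris pH 7.3, 5 mM MgCl2, 2.5 mM EDTA, bacitracin with 60 pM 125I-ghrelin and competitor; nonspecific binding with 10^-6 M ghrelin; filtration read-out.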

[4] = tested on: GH concentration in the plasma of male rat pups; experiment: In vivo GH concentration in the plasma of male rat pups; set-up: species or system rat (Sprague-Dawley); conditions: rat pup plasma, killed 15 min later
Experimental: IV) Assaying In Vivo GH Concentration in the Plasma of Male Rat Pups
GH plasma concentrations of male rat pubs were assayed to characterize the modulation effect (antagonistic or agonistic) of the compounds of the invention being GHS receptor analogue ligands.
In principle, assaying in vivo GH concentration in rat plasma was performed according to Torsello et al. (Eur. J. Pharmacol. 1998, 360: 123-129).
Male Sprague-Dawley rat pups (Charles River, Calco, Italy) were separated on postnatal day seven from their mothers and randomly redistributed to the dams, so that each one nurtured ten to twelve pups. On postnatal day ten, the pups were again separated from their mothers.
The compounds to be tested were dissolved in solvent [DMSO (0.4% of total volume), distilled water (4% of total volume), brought to the final volume with physiological saline].
One hour after separation from their mothers, the pups were given isovolumetric amounts of the compounds to be tested (160 μg/kg body weight s.c.) at time −10 min and then administered with hexarelin (80 μg/kg body weight s.c.) or solvent at time 0 min before being killed 15 min later by decapitation. Trunk blood was collected, immediately centrifuged and plasma samples were stored at −20° C. until assayed for the determination of GH concentrations.
Plasma GH concentrations were measured using a rat growth hormone enzyme immunoassay kit (SPIbio, France, cat. no. 589601) according to the manufacturer's instructions. Values are expressed in terms of NIDDK rat-GH-RP2 standard (potency 2 IU/mg) as ng/mL of plasma
The limit of detection calculated as the concentration producing 15% displacement of initial tracer was 0.5 ng/ml; intra-assay and inter-assay coefficient of variation are 4% (n=24) and 14% (n=9).
In the following table 3 results obtained for selected compounds of the invention are presented.

[5] = tested on: young-adult male Sprague-Dawley rats; experiment: Feeding behavior (food intake) of young-adult male rats; assay type: in vivo, rat (Sprague-Dawley)
Outline: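 Compounds (160 μg/kg) and/or hexarelin (80 μg/kg), the latter used to stimulate feeding, given s.c. around 10.00–11.00 a.m. to trained rats (200–250 g) with free access to chow and water. Remaining food weighed hourly for 6 h; intake normalized to body weight as g per 100 g.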

[6] = compound 160 μg/kg s.c. + hexarelin 80 μg/kg s.c.
[7] = compound alone, 160 μg/kg body weight s.c.

IC50 [1]: 1610 nM
IC50 [3]: 0.6 nM
Compound: COc1ccc(Cn2c(CCc3ccccc3)nnc2[C@@H](Cc2c[nH]c3ccccc23)NC(=O)C2CCNCC2)cc1 [compound 44, (R)—N-(1-(4-(4-methoxybenzyl)-5-phenethyl-4H-1,2,4-triazol-3-yl)-2-(1H-indol-3-yl)ethyl)piperidine-4-carboxamide]
Body weight change, Day 3 ([2]; Day 3, mean of 6 animals): −5.32 gram
Body weight change, Day 6 ([2]; Day 6, mean of 6 animals): 2.98 gram
Body weight change, Day 10 ([2]; Day 10, mean of 6 animals): 14.92 gram
Body weight change, Day 13 ([2]; Day 13, mean of 6 animals): 19.08 gram
Body weight change, Day 15 ([2]; Day 15, mean of 6 animals): 7.05 gram
Body weight change, Day 17 ([2]; Day 17, mean of 6 animals): 1.47 gram
GH concentration ([4]; compound 160 μg/kg s.c. at -10 min + hexarelin 80 μg/kg s.c. at 0 min): 100.52 ± 12.112 ng/mL
GH concentration ([4]; compound alone 160 μg/kg body weight s.c. at -10 min, solvent at 0 min): 87.520 ± 15.066 ng/mL
Cumulative food intake (after 2 hours) [5, 6]: 1.2667 ± 0.1319 g food/100 g body weight
Cumulative food intake (after 6 hours) [5, 6]: 1.4033 ± 0.1177 g food/100 g body weight
Cumulative food intake (after 2 hours) [5, 7]: 0.43 ± 0.0721 g food/100 g body weight
Cumulative food intake (after 6 hours) [5, 7]: 0.7075 ± 0.1471 g food/100 g body weight
